Measurements reported in patent US20110052503A1, “BIODEGRADABLE CONTRAST AGENTS” (IOPHARMA TECHNOLOGIES AB, priority 2007, published 2011).

Assay: Stability of iohexyl hexa-acetate in human plasma
Details: iohexyl formed from 300 μM IHA in citrated plasma, 37° C., FIG. 1
Experimental: A stock solution of iohexyl hexa-acetate was prepared by adding 100 mg IHA to a 100 ml volumetric flask, followed by 1.0 ml DMSO and deionised water to 100 ml, giving a final concentration of 1.0 mg/ml. The plasma solution was prepared by adding 1.61 ml of the IHA stock solution to 3.39 ml of citrated bovine plasma, giving a final concentration of 300 μM. The citrated human plasma was incubated at 37° C., and 0.25 ml plasma removed at 1, 2, 3, 4, 6, 8, 24, 30 and 48 h. Proteins were discarded from the samples by centrifugal filtration and the resulting filtrates analyzed by HPLC.

Which results are given for `CC(=O)N(CC(O)CO)c1c(I)c(C(=O)NCC(O)CO)c(I)c(C(=O)NCC(O)CO)c1I` (centres unmarked) [iohexyl]?
concentration of iohexyl in plasma, first 8 h (first 8 h): constant; concentration of iohexyl in plasma, 8 to 48 h (from 8 to 48 h): increases dramatically
